Test results reported in US9938273B2 (Plexxikon Inc., priority 2015, dated 2018).

Experiments:
[1] = biological target: T1, BA/F3-FLT3-ITD + D835Y cells (Homo sapiens, UniProt P36888, D835Y, cells depend on it, form not given); test: Cell proliferation assay (CellTiter-Glo), engineered BA/F3 cells; format: cell-based, murine; settings: BaF3 FLT3 ITD/D835Y cells, 3d-Growth; read-out: BaF3_FLT3 ITD/D835Y 3d-Growth: IC50
T1 sequence (P36888 1-993 D835Y): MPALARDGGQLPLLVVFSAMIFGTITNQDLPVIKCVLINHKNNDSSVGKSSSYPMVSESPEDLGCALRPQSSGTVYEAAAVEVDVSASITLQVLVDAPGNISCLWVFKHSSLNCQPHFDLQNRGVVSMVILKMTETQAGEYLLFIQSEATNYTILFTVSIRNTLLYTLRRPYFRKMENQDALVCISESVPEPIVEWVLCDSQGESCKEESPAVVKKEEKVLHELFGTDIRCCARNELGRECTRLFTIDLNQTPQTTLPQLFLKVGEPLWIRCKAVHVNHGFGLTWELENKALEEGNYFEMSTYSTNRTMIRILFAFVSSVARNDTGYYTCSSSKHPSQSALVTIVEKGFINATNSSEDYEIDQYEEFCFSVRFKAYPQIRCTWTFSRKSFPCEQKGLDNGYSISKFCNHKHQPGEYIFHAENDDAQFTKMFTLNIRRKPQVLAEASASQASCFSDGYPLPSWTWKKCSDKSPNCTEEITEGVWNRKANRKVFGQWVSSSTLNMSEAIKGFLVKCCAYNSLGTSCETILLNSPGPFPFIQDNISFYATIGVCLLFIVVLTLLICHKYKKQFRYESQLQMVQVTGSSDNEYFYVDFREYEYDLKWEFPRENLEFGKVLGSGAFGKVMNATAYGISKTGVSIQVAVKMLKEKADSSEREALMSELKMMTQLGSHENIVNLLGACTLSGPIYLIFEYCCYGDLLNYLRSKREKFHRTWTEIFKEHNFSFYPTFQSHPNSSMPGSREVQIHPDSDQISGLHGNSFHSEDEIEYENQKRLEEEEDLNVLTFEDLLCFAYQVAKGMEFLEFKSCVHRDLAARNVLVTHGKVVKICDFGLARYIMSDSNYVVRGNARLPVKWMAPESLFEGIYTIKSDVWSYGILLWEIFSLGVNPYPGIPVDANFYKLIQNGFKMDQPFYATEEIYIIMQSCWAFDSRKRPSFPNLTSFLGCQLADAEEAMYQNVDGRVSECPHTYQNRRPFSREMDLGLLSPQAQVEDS
How it was run: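 MOLM-14 AML cells (endogenous FLT3 ITD, AC220-selected D835Y or F691L variants) or murine Ba/F3 expressing full-length FLT3 ITD/D835Y, without IL-3 for FLT3 dependence, 1×10^4 cells/well. Eight-point 1:3 series from 1 μM final, 0.2% DMSO, 3 days at 37 °C. CellTiter-Glo luminescence (ATP) gave IC50.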

c-KIT = biological target: T2, c-KIT (Homo sapiens, UniProt P10721); test: AlphaScreen kinase assay with recombinant enzyme, c-KIT; format: biochemical; settings: 100ATP, 8pt, GMean
T2 construct: purchased Millipore 14-559K
How it was run: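 Compounds in DMSO added to enzyme plus biotin-poly(Glu4-Tyr) (30 nM) in assay buffer, then ATP added. Streptavidin donor beads added (20 min, RT), then PY20 acceptor beads (60 min, RT), both at 10 μg/mL final in stop/detection buffer. IC50 conditions: 10 μM FLT3-D835Y/ITD, 100 μM c-KIT.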

T2 sequence (P10721 26-976): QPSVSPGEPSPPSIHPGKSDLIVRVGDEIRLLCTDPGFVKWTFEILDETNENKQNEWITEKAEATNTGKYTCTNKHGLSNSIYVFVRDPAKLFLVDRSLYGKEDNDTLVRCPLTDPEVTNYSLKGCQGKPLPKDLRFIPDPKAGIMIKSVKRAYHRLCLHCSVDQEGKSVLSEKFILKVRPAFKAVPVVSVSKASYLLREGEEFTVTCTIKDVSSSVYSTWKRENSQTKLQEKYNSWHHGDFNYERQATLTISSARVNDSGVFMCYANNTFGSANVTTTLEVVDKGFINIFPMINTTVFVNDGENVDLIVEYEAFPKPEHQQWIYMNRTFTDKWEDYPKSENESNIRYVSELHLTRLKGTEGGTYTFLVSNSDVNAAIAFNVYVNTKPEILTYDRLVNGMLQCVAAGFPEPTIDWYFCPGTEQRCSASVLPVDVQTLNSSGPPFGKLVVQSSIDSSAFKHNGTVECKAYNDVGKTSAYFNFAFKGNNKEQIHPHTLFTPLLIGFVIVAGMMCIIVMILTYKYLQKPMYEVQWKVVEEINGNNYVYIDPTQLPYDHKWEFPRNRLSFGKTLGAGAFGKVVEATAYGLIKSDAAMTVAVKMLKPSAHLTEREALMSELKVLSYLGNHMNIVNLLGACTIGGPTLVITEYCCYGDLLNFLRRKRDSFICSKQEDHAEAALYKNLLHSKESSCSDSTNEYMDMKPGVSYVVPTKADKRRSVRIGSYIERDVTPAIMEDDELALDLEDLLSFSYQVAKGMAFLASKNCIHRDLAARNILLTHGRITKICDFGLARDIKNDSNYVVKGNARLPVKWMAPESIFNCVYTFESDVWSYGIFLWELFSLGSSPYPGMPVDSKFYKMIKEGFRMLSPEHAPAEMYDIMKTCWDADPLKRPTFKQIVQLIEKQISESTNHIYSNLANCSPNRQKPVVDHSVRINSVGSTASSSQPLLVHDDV

| SMILES | GI50 [1] [µM] | IC50 (c-KIT) [µM] |
| --- | --- | --- |
| O=C(c1cccc(-c2cnc3[nH]c(-c4ccccc4)cc3c2)n1)N1CCCC(O)C1 (stereo not drawn) [Compound P-0069, (3-hydroxy-1-piperidyl)-[6-(2-phenyl-1H-pyrrolo[2,3-b]pyridin-5-yl)-2-pyridyl]methanone] | 0.0001 to 10 | 10 to 50 |
| NC1CCN(c2cccc3ccc(-c4cnc5[nH]c(-c6ccccc6)cc5c4)nc23)CC1 [Compound P-0034, 1-[2-(2-phenyl-1H-pyrrolo[2,3-b]pyridin-5-yl)-8-quinolyl]piperidin-4-amine] | 0.0001 to 10 | 0.0001 to 10 |
| NC1CCCN(C(=O)c2cccc(-c3cnc4[nH]c(-c5ccccc5)cc4c3)n2)C1 (stereo not drawn) [Compound P-0067, (3-amino-1-piperidyl)-[6-(2-phenyl-1H-pyrrolo[2,3-b]pyridin-5-yl)-2-pyridyl]methanone] | 0.0001 to 10 | 0.0001 to 10 |
| Cc1ccc(-c2cnc3[nH]c(-c4ccccc4)cc3c2)cc1C(=O)N1CCC(N)CC1 [Compound P-0035, (4-amino-1-piperidyl)-[2-methyl-5-(2-phenyl-1H-pyrrolo[2,3-b]pyridin-5-yl)phenyl]methanone] | 0.0001 to 10 | 0.0001 to 10 |
| CS(=O)(=O)NC1CCN(C(=O)c2cccc(-c3cnc4[nH]c(-c5ccccc5)cc4c3)n2)CC1 [Compound P-0032, N-[1-[6-(2-phenyl-1H-pyrrolo[2,3-b]pyridin-5-yl)pyridine-2-carbonyl]-4-piperidyl]methanesulfonamide] | 0.0001 to 10 | 10 to 50 |
| CON(C)C(=O)c1cccc(-c2cnc3[nH]c(-c4ccccc4)cc3c2)c1 [Compound P-0002, N-methoxy-N-methyl-3-(2-phenyl-1H-pyrrolo[2,3-b]pyridin-5-yl)benzamide] | 0.0001 to 10 | 0.0001 to 10 |
| NC1CCN(C(=O)c2c[nH]c3ccc(-c4cnc5[nH]c(-c6ccccc6)cc5c4)cc23)CC1 [Compound P-0042, (4-amino-1-piperidyl)-[5-(2-phenyl-1H-pyrrolo[2,3-b]pyridin-5-yl)-1H-indol-3-yl]methanone] | 0.0001 to 10 | 0.0001 to 10 |
| NC1CCC(C(=O)N2Cc3c(cccc3-c3cnc4[nH]c(-c5ccccc5)cc4c3)C2=O)C1 (stereo not drawn) [Compound P-0047, 2-(3-aminocyclopentanecarbonyl)-4-(2-phenyl-1H-pyrrolo[2,3-b]pyridin-5-yl)isoindolin-1-one] | 0.0001 to 10 | 0.0001 to 10 |
| O=C(NC1CCNCC1)c1n[nH]c2ccc(-c3cnc4[nH]c(-c5ccccc5)cc4c3)cc12 [Compound P-0039, 5-(2-phenyl-1H-pyrrolo[2,3-b]pyridin-5-yl)-N-(4-piperidyl)-1H-indazole-3-carboxamide] | 0.0001 to 10 | 0.0001 to 10 |
| N[C@H]1CCN(C(=O)c2cccc(-c3cnc4[nH]c(-c5ccccc5)cc4c3)c2)C1 [Compound P-0036, [(3S)-3-aminopyrrolidin-1-yl]-[3-(2-phenyl-1H-pyrrolo[2,3-b]pyridin-5-yl)phenyl]methanone] | 0.0001 to 10 | 0.0001 to 10 |
| CNC1CCN(C(=O)c2n[nH]c3ccc(-c4cnc5[nH]c(-c6ccccc6)cc5c4)cc23)CC1 [Compound P-0044, [4-(methylamino)-1-piperidyl]-[5-(2-phenyl-1H-pyrrolo[2,3-b]pyridin-5-yl)-1H-indazol-3-yl]methanone] | 0.0001 to 10 | 0.0001 to 10 |
| NC1CCN(C(=O)c2cc(-c3cnc4[nH]c(-c5ccccc5)cc4c3)ccn2)CC1 [Compound P-0038, (4-amino-1-piperidyl)-[4-(2-phenyl-1H-pyrrolo[2,3-b]pyridin-5-yl)-2-pyridyl]methanone] | 0.0001 to 10 | 0.0001 to 10 |
| Cc1ccc(-c2cnc3[nH]c(-c4ccccc4)cc3c2)nc1C(=O)N1CCC(N)CC1 [Compound P-0033, (4-amino-1-piperidyl)-[3-methyl-6-(2-phenyl-1H-pyrrolo[2,3-b]pyridin-5-yl)-2-pyridyl]methanone] | 0.0001 to 10 | 0.0001 to 10 |
| CC1(N)CCCN(C(=O)c2cccc(-c3cnc4[nH]c(-c5ccccc5)cc4c3)n2)C1 (stereo not drawn) [Compound P-0082, (3-amino-3-methyl-1-piperidyl)-[6-(2-phenyl-1H-pyrrolo[2,3-b]pyridin-5-yl)-2-pyridyl]methanone] | 0.0001 to 10 |  |
| CNC1CCN(Cc2cccc(-c3cnc4[nH]c(-c5ccccc5)cc4c3)n2)C1 (stereo not drawn) [Compound P-0087, N-methyl-1-[[6-(2-phenyl-1H-pyrrolo[2,3-b]pyridin-5-yl)-2-pyridyl]methyl]pyrrolidin-3-amine] | 0.0001 to 10 | 0.0001 to 10 |
| O=C(c1cccc(-c2cnc3[nH]c(-c4ccccc4)cc3c2)n1)N1CCC(F)(F)CC1 [Compound P-0089, (4,4-difluoro-1-piperidyl)-[6-(2-phenyl-1H-pyrrolo[2,3-b]pyridin-5-yl)-2-pyridyl]methanone] | 0.0001 to 10 | 50 to 100 |
| N[C@H]1CCN(C(=O)c2csc(-c3cnc4[nH]c(-c5ccccc5)cc4c3)n2)C1 [Compound P-0048, [(3S)-3-aminopyrrolidin-1-yl]-[2-(2-phenyl-1H-pyrrolo[2,3-b]pyridin-5-yl)thiazol-4-yl]methanone] | 50 to 100 |  |
| O=C(c1cccc(-c2cnc3[nH]c(-c4ccccc4)cc3c2)n1)N1CCC(O)C1 (stereo not drawn) [Compound P-0068, (3-hydroxypyrrolidin-1-yl)-[6-(2-phenyl-1H-pyrrolo[2,3-b]pyridin-5-yl)-2-pyridyl]methanone] | 0.0001 to 10 | 0.0001 to 10 |
| NC1CN(C(=O)c2n[nH]c3ccc(-c4cnc5[nH]c(-c6ccccc6)cc5c4)cc23)C1 [Compound P-0029, (3-aminoazetidin-1-yl)-[5-(2-phenyl-1H-pyrrolo[2,3-b]pyridin-5-yl)-1H-indazol-3-yl]methanone] | 0.0001 to 10 | 0.0001 to 10 |
| c1ccc(-c2cc3cc(-c4ccc5[nH]nc(NC6CCNCC6)c5c4)cnc3[nH]2)cc1 [Compound P-0056, 5-(2-phenyl-1H-pyrrolo[2,3-b]pyridin-5-yl)-N-(4-piperidyl)-1H-indazol-3-amine] | 0.0001 to 10 | 0.0001 to 10 |
| CC(=O)NC1CCN(C(=O)c2cccc(-c3cnc4[nH]c(-c5ccc(F)cc5)cc4c3)c2)CC1 [Compound P-0001, N-[1-[3-[2-(4-fluorophenyl)-1H-pyrrolo[2,3-b]pyridin-5-yl]benzoyl]-4-piperidyl]acetamide] | 0.0001 to 10 | 0.0001 to 10 |
| c1ccc(-c2cc3cc(-c4ccc5[nH]nc(NC6CNC6)c5c4)cnc3[nH]2)cc1 [Compound P-0053, N-(azetidin-3-yl)-5-(2-phenyl-1H-pyrrolo[2,3-b]pyridin-5-yl)-1H-indazol-3-amine] | 0.0001 to 10 | 0.0001 to 10 |
| COC(=O)C1(C)CCN(C(=O)c2cccc(-c3cnc4[nH]c(-c5ccccc5)cc4c3)n2)CC1 [Compound P-0092, methyl 4-methyl-1-[6-(2-phenyl-1H-pyrrolo[2,3-b]pyridin-5-yl)pyridine-2-carbonyl]piperidine-4-carboxylate] | 0.0001 to 10 | 50 to 100 |
| CNC1CCCN(C(=O)c2cccc(-c3cnc4[nH]c(-c5ccccc5)cc4c3)n2)C1 (stereo not drawn) [Compound P-0080, [3-(methylamino)-1-piperidyl]-[6-(2-phenyl-1H-pyrrolo[2,3-b]pyridin-5-yl)-2-pyridyl]methanone] | 0.0001 to 10 |  |
| CN(C(=O)c1cccc(-c2cnc3[nH]c(-c4ccccc4)cc3c2)n1)C1CCNC1 (stereo not drawn) [Compound P-0076, N-methyl-6-(2-phenyl-1H-pyrrolo[2,3-b]pyridin-5-yl)-N-pyrrolidin-3-yl-pyridine-2-carboxamide] | 0.0001 to 10 |  |
| CC1(N)CCN(C(=O)c2cccc(-c3cnc4[nH]c(-c5ccccc5)cc4c3)n2)CC1 [Compound P-0081, (4-amino-4-methyl-1-piperidyl)-[6-(2-phenyl-1H-pyrrolo[2,3-b]pyridin-5-yl)-2-pyridyl]methanone] | 0.0001 to 10 |  |
| N[C@@H]1CN(C(=O)c2cccc(-c3cnc4[nH]c(-c5ccccc5)cc4c3)n2)CC12CC2 [Compound P-0083, [(7S)-7-amino-5-azaspiro[2.4]heptan-5-yl]-[6-(2-phenyl-1H-pyrrolo[2,3-b]pyridin-5-yl)-2-pyridyl]methanone] | 0.0001 to 10 |  |
